IC50 data for eight molecules are collected here from ChEMBL document CHEMBL3351300, “GnRH antagonists: the promise of treating sex-hormone-related diseases” (ACS Med Chem Lett, 2014).

The assay concerns the target T1, Gonadotropin-releasing hormone receptor (Homo sapiens, UniProt P30968).
T1 sequence (P30968 whole entry): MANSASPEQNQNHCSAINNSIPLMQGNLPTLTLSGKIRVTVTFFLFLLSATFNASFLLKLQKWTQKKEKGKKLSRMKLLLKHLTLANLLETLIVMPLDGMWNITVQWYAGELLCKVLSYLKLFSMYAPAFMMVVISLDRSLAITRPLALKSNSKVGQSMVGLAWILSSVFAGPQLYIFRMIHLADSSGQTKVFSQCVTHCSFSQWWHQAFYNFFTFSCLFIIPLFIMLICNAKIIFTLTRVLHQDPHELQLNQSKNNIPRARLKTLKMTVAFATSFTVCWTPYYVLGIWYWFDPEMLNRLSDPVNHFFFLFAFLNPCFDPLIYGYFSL
Kind of assay: Antagonist activity against human GnRH receptor expressed in CHO cells by IP-one HTRF assay. It counts as cell-based. (In general: In TR-FRET formats the signal depends on donor and acceptor labels being close together.)

In general, IC50 refers to the concentration at which inhibition is half-maximal. The low end stands for greater potency in that assay, the high end for weaker potency in that assay. Molecule `O=C(NCc1ncc(Cl)cc1C(F)(F)F)c1ccc2c(c1)C1(CCS(=O)(=O)CC1)C(C1CC1)N2S(=O)(=O)c1ccc(F)cc1` (single isomer, unassigned; enantiomer 2) gave an IC50 of 4.08 µM. In other words, the single-digit micromolar range.

`O=C(NCc1ncc(Cl)cc1C(F)(F)F)c1ccc2c(c1)C1(CCS(=O)(=O)CC1)C(C1CC1)N2S(=O)(=O)c1ccc(F)cc1` (single isomer, unassigned; enantiomer 1) gave an IC50 of 0.0033 µM.

For `N#Cc1cccc(S(=O)(=O)N2c3ccc(C(=O)NCc4ncc(C(F)(F)F)cc4F)cc3C3(CCS(=O)(=O)CC3)C2C2CC2)c1` (single isomer, unassigned; enantiomer 1), the IC50 was 0.107 µM.

`O=C(NCc1ncc(C(F)(F)F)cc1Cl)c1ccc2c(c1)C1(CCS(=O)(=O)CC1)C(C1CC1)N2S(=O)(=O)c1cccc(OC(F)(F)F)c1` (single isomer, unassigned; enantiomer 1) gave an IC50 of 0.068 µM.

For the molecule `O=C(NCc1ncc(C(F)(F)F)cc1Cl)c1ccc2c(c1)C1(CCS(=O)(=O)CC1)C(C1CC1)N2S(=O)(=O)c1ccc(Cl)cc1` (single isomer, unassigned; enantiomer 1), the IC50 was found to be 9.35 µM.

For `N#Cc1cccc(S(=O)(=O)N2c3ccc(C(=O)NCc4ncc(C(F)(F)F)cc4F)cc3C3(CCS(=O)(=O)CC3)C2C2CC2)c1` (single isomer, unassigned; enantiomer 2), the IC50 was determined as 2.31 µM.

In turn, `O=C(NCc1ncc(C(F)(F)F)cc1Cl)c1ccc2c(c1)C1(CCS(=O)(=O)CC1)C(C1CC1)N2S(=O)(=O)c1ccc(Cl)cc1` (single isomer, unassigned; enantiomer 2) returned an IC50 of 0.0055 µM.

Take `O=C(NCc1ncc(C(F)(F)F)cc1Cl)c1ccc2c(c1)C1(CCS(=O)(=O)CC1)C(C1CC1)N2S(=O)(=O)c1cccc(OC(F)(F)F)c1` (single isomer, unassigned; enantiomer 2): the IC50 turned out to be 4.21 µM.
